Assay results as given in patent US20260262643A1, “HERBICIDAL BENZOXAZINES” (FMC CORPORATION, priority 2022, published 2026).

What was measured:
green foxtail [1] = test: Test C preemergence; assay type: in vivo, Setaria viridis; details: 0 to 100 scale (0 no effect, 100 complete control); for Plant response rating, Foxtail, Green: Preemergence, 500 g ai/ha, visual rating after 10 days; for Foxtail, Green plant response rating: Test C, preemergence, 125 g ai/ha
Outline: (§1)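 Greenhouse herbicide screen, 10-day duration. Test chemicals in solvent/surfactant blend were sprayed onto soil at sowing (pre) or onto 2–10 cm seedlings at one to two leaves (post); injury scored visually against controls, 0 no effect to 100 complete control.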

wheat [2] = test: Test C preemergence; assay type: in vivo, Triticum aestivum; details: 0 to 100 scale (0 no effect, 100 complete control); for Plant response rating, Wheat: Preemergence, 500 g ai/ha, visual rating after 10 days; for Wheat plant response rating: Test C, preemergence, 125 g ai/ha
Outline: as §1

ducksalad = test: Test D flooded paddy test; assay type: in vivo, Heteranthera limosa; details: 250 g ai/ha, applied to paddy water, visual rating after 13 to 14 days, scale 0 to 100 (0 no effect, 100 complete control)
Outline: (§2)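 Visual ratings from 0, meaning no effect, to 100, meaning complete control, were assigned against untreated controls 13 to 14 days after compounds were added to the floodwater of pots kept 3 cm deep, with plants at the 2-leaf stage.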

rice = test: Test D flooded paddy test; assay type: in vivo, Oryza sativa; details: 250 g ai/ha, applied to paddy water, visual rating after 13 to 14 days, scale 0 to 100 (0 no effect, 100 complete control)
Outline: as §2

soybean [3] = test: Test C postemergence; assay type: in vivo, Glycine max; details: 10 days
Outline: as §1

oat, wild [4] = test: Test C preemergence; assay type: in vivo, Avena fatua; details: 0 to 100 scale (0 no effect, 100 complete control); for Plant response rating, Oat, Wild: Preemergence, 500 g ai/ha, visual rating after 10 days; for Oat, Wild plant response rating: Test C, preemergence, 125 g ai/ha
Outline: as §1

blackgrass [5] = test: Test C preemergence; assay type: in vivo, Alopecurus myosuroides; details: 0 to 100 scale (0 no effect, 100 complete control); for Plant response rating, Blackgrass: Preemergence, 500 g ai/ha, visual rating after 10 days; for Blackgrass plant response rating: Test C, preemergence, 125 g ai/ha
Outline: as §1

barnyardgrass [6] = test: Test C postemergence; assay type: in vivo, Echinochloa crusgalli; details: 10 days
Outline: as §1

blackgrass [7] = test: Test C postemergence; assay type: in vivo, Alopecurus myosuroides; details: 10 days
Outline: as §1

kochia [8] = test: Test C preemergence; assay type: in vivo, Bassia scoparia; details: 0 to 100 scale (0 no effect, 100 complete control); for Plant response rating, Kochia: Preemergence, 500 g ai/ha, visual rating after 10 days; for Kochia plant response rating: Test C, preemergence, 125 g ai/ha
Outline: as §1

wheat [9] = test: Test C postemergence; assay type: in vivo, Triticum aestivum; details: 10 days
Outline: as §1

corn [10] = test: Test C postemergence; assay type: in vivo, Zea mays; details: 10 days
Outline: as §1

ryegrass, Italian [11] = test: Test C postemergence; assay type: in vivo, Lolium multiflorum; details: 10 days
Outline: as §1

galium = test: Test C postemergence; assay type: in vivo, Galium aparine; details: 10 days
Outline: as §1

ragweed [12] = test: Test C preemergence; assay type: in vivo, Ambrosia artemisiifolia; details: 0 to 100 scale (0 no effect, 100 complete control); for Plant response rating, Ragweed: Preemergence, 500 g ai/ha, visual rating after 10 days; for Ragweed plant response rating: Test C, preemergence, 125 g ai/ha
Outline: as §1

pigweed, palmer [13] = test: Test C postemergence; assay type: in vivo, Amaranthus palmeri; details: 10 days
Outline: as §1

sedge, umbrella = test: Test D flooded paddy test; assay type: in vivo, Cyperus difformis; details: 250 g ai/ha, applied to paddy water, visual rating after 13 to 14 days, scale 0 to 100 (0 no effect, 100 complete control)
Outline: as §2

green foxtail [14] = test: Test C postemergence; assay type: in vivo, Setaria viridis; details: 10 days
Outline: as §1

corn [15] = test: Test C preemergence; assay type: in vivo, Zea mays; details: 0 to 100 scale (0 no effect, 100 complete control); for Plant response rating, Corn: Preemergence, 500 g ai/ha, visual rating after 10 days; for Corn plant response rating: Test C, preemergence, 125 g ai/ha
Outline: as §1

ragweed [16] = test: Test C postemergence; assay type: in vivo, Ambrosia artemisiifolia; details: 10 days
Outline: as §1

barnyardgrass [17] = test: Test D flooded paddy test; assay type: in vivo, Echinochloa crus-galli; details: 250 g ai/ha, applied to paddy water, visual rating after 13 to 14 days, scale 0 to 100 (0 no effect, 100 complete control)
Outline: as §2

oat, wild [18] = test: Test C postemergence; assay type: in vivo, Avena fatua; details: 10 days
Outline: as §1

soybean [19] = test: Test C preemergence; assay type: in vivo, Glycine max; details: 0 to 100 scale (0 no effect, 100 complete control); for Plant response rating, Soybean: Preemergence, 500 g ai/ha, visual rating after 10 days; for Soybean plant response rating: Test C, preemergence, 125 g ai/ha
Outline: as §1

horseweed = test: Test C postemergence; assay type: in vivo, Erigeron canadensis; details: 10 days
Outline: as §1

barnyardgrass [20] = test: Test C preemergence; assay type: in vivo, Echinochloa crusgalli; details: 0 to 100 scale (0 no effect, 100 complete control); for Barnyardgrass plant response rating: 125 g ai/ha, preemergence; for Plant response rating, Barnyardgrass: Preemergence, 500 g ai/ha, visual rating after 10 days
Outline: as §1

ryegrass, Italian [21] = test: Test C preemergence; assay type: in vivo, Lolium multiflorum; details: 0 to 100 scale (0 no effect, 100 complete control); for Plant response rating, Ryegrass, Italian: Preemergence, 500 g ai/ha, visual rating after 10 days; for Ryegrass, Italian plant response rating: Test C, preemergence, 125 g ai/ha
Outline: as §1

pigweed, palmer [22] = test: Test C preemergence; assay type: in vivo, Amaranthus palmeri; details: 0 to 100 scale (0 no effect, 100 complete control); for Plant response rating, Pigweed, Palmer: Preemergence, 500 g ai/ha, visual rating after 10 days; for Pigweed, Palmer plant response rating: Test C, preemergence, 125 g ai/ha
Outline: as §1

kochia [23] = test: Test C postemergence; assay type: in vivo, Bassia scoparia; details: 10 days
Outline: as §1

[24] = 125 g ai/ha, postemergence, 0 to 100 scale, 0 no effect, 100 complete control
[25] = Postemergence, 500 g ai/ha, visual 0 to 100 scale (0 no effect, 100 complete control)

C[C@H]1CN(C(=O)c2cc(-n3cncn3)cc3c2OCCO3)c2cccc(Cl)c2O1 [Compound 153]
Plant response rating, Foxtail, Green (green foxtail [1]): 100
Foxtail, Green plant response rating (green foxtail [1]): 100
Plant response rating, Wheat (wheat [2]): 90
Wheat plant response rating (wheat [2]): 20
Plant response rating, Ducksalad (Flood) (ducksalad): 70
Plant response rating, Rice (Flood) (rice): 15
Plant response rating, Soybean (soybean [3]; [24]): 100
Plant response rating, Soybean (soybean [3]; [25]): 100
Plant response rating, Oat, Wild (oat, wild [4]): 80
Oat, Wild plant response rating (oat, wild [4]): 40
Plant response rating, Blackgrass (blackgrass [5]): 60
Blackgrass plant response rating (blackgrass [5]): 20
Plant response rating, Barnyardgrass (barnyardgrass [6]; [24]): 90
Plant response rating, Barnyardgrass (barnyardgrass [6]; [25]): 90
Plant response rating, Blackgrass (blackgrass [7]; [24]): 90
Plant response rating, Blackgrass (blackgrass [7]; [25]): 90
Plant response rating, Kochia (kochia [8]): 60
Kochia plant response rating (kochia [8]): 0
Plant response rating, Wheat (wheat [9]; [24]): 90
Plant response rating, Wheat (wheat [9]; [25]): 90
Plant response rating, Corn (corn [10]; [24]): 80
Plant response rating, Corn (corn [10]; [25]): 90
Plant response rating, Ryegrass, Italian (ryegrass, Italian [11]; [24]): 90
Plant response rating, Ryegrass, Italian (ryegrass, Italian [11]; [25]): 100
Plant response rating, Galium (galium; [24]): 90
Plant response rating, Galium (galium; [25]): 100
Plant response rating, Ragweed (ragweed [12]): 100
Ragweed plant response rating (ragweed [12]): 80
Plant response rating, Pigweed, Palmer (pigweed, palmer [13]; [24]): 70
Plant response rating, Pigweed, Palmer (pigweed, palmer [13]; [25]): 100
Plant response rating, Sedge, Umbrella (Flood) (sedge, umbrella): 98
Plant response rating, Foxtail, Green (green foxtail [14]; [24]): 90
Plant response rating, Foxtail, Green (green foxtail [14]; [25]): 90
Plant response rating, Corn (corn [15]): 30
Corn plant response rating (corn [15]): 10
Plant response rating, Ragweed (ragweed [16]; [24]): 80
Plant response rating, Ragweed (ragweed [16]; [25]): 100
Plant response rating, Barnyardgrass (Flood) (barnyardgrass [17]): 35
Plant response rating, Oat, Wild (oat, wild [18]; [24]): 50
Plant response rating, Oat, Wild (oat, wild [18]; [25]): 70
Plant response rating, Soybean (soybean [19]): 100
Soybean plant response rating (soybean [19]): 100
Plant response rating, Horseweed (horseweed; [24]): 60
Plant response rating, Horseweed (horseweed; [25]): 50
Barnyardgrass plant response rating (barnyardgrass [20]): 80
Plant response rating, Barnyardgrass (barnyardgrass [20]): 100
Plant response rating, Ryegrass, Italian (ryegrass, Italian [21]): 90
Ryegrass, Italian plant response rating (ryegrass, Italian [21]): 90
Plant response rating, Pigweed, Palmer (pigweed, palmer [22]): 100
Pigweed, Palmer plant response rating (pigweed, palmer [22]): 100
Plant response rating, Kochia (kochia [23]; [24]): 60
Plant response rating, Kochia (kochia [23]; [25]): 90

C[C@H]1CN(C(=O)c2cc(-n3cnc(C(C)(C)C)n3)cc3c2OCCO3)c2cccc(Cl)c2O1 [Compound 154]
Plant response rating, Foxtail, Green (green foxtail [1]): 100
Foxtail, Green plant response rating (green foxtail [1]): 100
Plant response rating, Wheat (wheat [2]): 60
Wheat plant response rating (wheat [2]): 10
Plant response rating, Ducksalad (Flood) (ducksalad): 10
Plant response rating, Rice (Flood) (rice): 10
Plant response rating, Soybean (soybean [3]; [24]): 90
Plant response rating, Soybean (soybean [3]; [25]): 100
Plant response rating, Oat, Wild (oat, wild [4]): 30
Oat, Wild plant response rating (oat, wild [4]): 20
Plant response rating, Blackgrass (blackgrass [5]): 60
Blackgrass plant response rating (blackgrass [5]): 20
Plant response rating, Barnyardgrass (barnyardgrass [6]; [24]): 20
Plant response rating, Barnyardgrass (barnyardgrass [6]; [25]): 50
Plant response rating, Blackgrass (blackgrass [7]; [24]): 20
Plant response rating, Blackgrass (blackgrass [7]; [25]): 90
Plant response rating, Kochia (kochia [8]): 100
Kochia plant response rating (kochia [8]): 100
Plant response rating, Wheat (wheat [9]; [24]): 10
Plant response rating, Wheat (wheat [9]; [25]): 30
Plant response rating, Corn (corn [10]; [24]): 20
Plant response rating, Corn (corn [10]; [25]): 50
Plant response rating, Ryegrass, Italian (ryegrass, Italian [11]; [24]): 30
Plant response rating, Ryegrass, Italian (ryegrass, Italian [11]; [25]): 70
Plant response rating, Galium (galium; [24]): 100
Plant response rating, Galium (galium; [25]): 100
Plant response rating, Ragweed (ragweed [12]): 100
Ragweed plant response rating (ragweed [12]): 50
Plant response rating, Pigweed, Palmer (pigweed, palmer [13]; [24]): 90
Plant response rating, Pigweed, Palmer (pigweed, palmer [13]; [25]): 100
Plant response rating, Sedge, Umbrella (Flood) (sedge, umbrella): 70
Plant response rating, Foxtail, Green (green foxtail [14]; [24]): 40
Plant response rating, Foxtail, Green (green foxtail [14]; [25]): 90
Plant response rating, Corn (corn [15]): 30
Corn plant response rating (corn [15]): 0
Plant response rating, Ragweed (ragweed [16]; [24]): 100
Plant response rating, Ragweed (ragweed [16]; [25]): 100
Plant response rating, Barnyardgrass (Flood) (barnyardgrass [17]): 15
Plant response rating, Oat, Wild (oat, wild [18]; [24]): 10
Plant response rating, Oat, Wild (oat, wild [18]; [25]): 20
Plant response rating, Soybean (soybean [19]): 100
Soybean plant response rating (soybean [19]): 40
Plant response rating, Horseweed (horseweed; [24]): 80
Plant response rating, Horseweed (horseweed; [25]): 70
Barnyardgrass plant response rating (barnyardgrass [20]): 70
Plant response rating, Barnyardgrass (barnyardgrass [20]): 100
Plant response rating, Ryegrass, Italian (ryegrass, Italian [21]): 90
Ryegrass, Italian plant response rating (ryegrass, Italian [21]): 70
Plant response rating, Pigweed, Palmer (pigweed, palmer [22]): 100
Pigweed, Palmer plant response rating (pigweed, palmer [22]): 100
Plant response rating, Kochia (kochia [23]; [24]): 100
Plant response rating, Kochia (kochia [23]; [25]): 100
